Laboratory results reported in US6673555B1, “Methods of using SCAP antagonists” (SmithKline Beecham Corporation, priority 1999, dated 2004).

What was measured:
[1] = system: human LDL-receptor promoter; assay: LDL-receptor promoter luciferase reporter assay in transfected HepG2 cells; format: cell-based
Excerpt: The human LDL-receptor promoter named p-588 corresponding to nucleotide −588 to +91 relative to the major transcription site was cloned by PCR from human genomic DNA (Clonetech) using SEQ ID NO: 3 […] and SEQ ID NO: 4 […] primers. and inserted into pGL3-basic vector (Promega) at Hind-III and Nco-I sites. The sequencing was identical to published promoter (Genbank L29401). Shorter promoters were obtained by PCR sub-cloning using Kpn-I and Nar-I sites. The primer SEQ ID NO: 5 […] corresponding to luciferase coding sequence was used as reverse primer for all constructs. The following primers were used to produce respectively p-149, p-118, p-70, p-53 and p-31 promoters: SEQ ID NO: 6 […], SEQ ID NO: 7 […], SEQ ID NO: 8 […], SEQ ID NO: 9 […] and SEQ ID NO: 10 […]. A vector containing the 38 bp of the minimal promoter of adenovirus Major Late Promoter (Ham. J. et al., EMBO, 10: 2931-2940 (1991)) was produced using Bgl-II and Hind-III site in pGL3-basic. Four repeats of the SRE sequence present on the human LDL-receptor promoter were introduced in p-MLP vector using Bgl-II site, SEQ ID NO: 11 […] and complementary oligo. HepG2 cells seeded the previous day at 3 10^5 cells per well of 24 well plate were transfected with 1 μg of LDL-promoter containing vector together with p-RL-TK control vector (Promega) using Fugene 6 (Boehringer). HepG2 cells were incubated for 28 hours in the presence of SCAP antagonist and/or 25OH-cholesterol. Firefly luciferase and Renila activity were measured using Dual Luciferase Assay Kit (Promega) and Lumistar (BMG). The ratio of Firefly luciferase to Renila were used to calculate mean and S.D. of tetraplicates.
A vector containing the human LDL-receptor promoter coupled to Firefly luciferase reporter was made. A mixture of the LDL-receptor vector and control pRL-TK vector was used to transfect HepG2 cells. Cells were incubated with 25OH-cholesterol (0.2 or 1 μM) alone or in the presence (black bars) or absence (gray bars) of Example 1 (1 μM) for 28 hours before measurement of luciferase and renila activity. The ratio of luciferase activity versus renila activity was calculated and the mean and SD of triplicates were expressed as percent of control.
Shortening the LDL-receptor promoter in the same reporter vector modifies the relative luciferase activity (FIG. 3A).

[2] = system: human SREBP-2; assay: Western blot analysis of the proteolytic maturation of SREBP-2 in HepG2 cells; format: cell-based; settings: 1 μM, 18 hours
Description: The involvement of the SREBP pathway was confirmed by Western Blot immunodetection of precursor and mature forms of human SREBP-2.
HepG2 cells were seeded in 150 cm^2 flasks at 8×10^6 cells and transfected with 10 μg of pTK-HSV-BP2 using Fugene 6 and incubated for 20 h before addition of 1 μM of example 1 or vehicle. After 18 h of incubation, membrane fraction and nuclear extracts were obtained using the method described by Hua, X. et al., J. Biol. Chem. 270: 29422-27 (1995).
Proteins (20 μg/load) were separated on 8% SDS-PAGE and blotted onto BA 83 nitrocellulose membrane (Schleisher & Schuell). The HSV tag present in the amino terminus of SREBP-2 was detected using 0.2 μg/ml of anti-HSV antibodies after saturation with 10% non-fat milk.
HepG2 cells were transfected (FIG. 4, lane b-e) or not transfected (FIG. 4, lane a) with pTK-HSV-BP2 vector encoding human SREBP-2 preceded by HSV tag. Cells were treated for 18 hours with Example 1 (1 μM) (lane c, d) or vehicle (lane a, b, e) and nuclear extract (lane d, e) and membrane (lane a-c) were isolated and analysed by western blotting using anti-HSV antibodies.

[3] = system: hamster LDL-receptor mRNA; assay: LDL-receptor mRNA by real-time PCR in livers of cholesterol-fed hamsters; format: in vivo, Syrian golden hamster; settings: 5 mg/kg oral once a day for 3 days, versus vehicle, FIG. 6
Description: The in vivo activity of SCAP antagonist was determined in the golden Syrian hamster previously fed with a cholesterol rich diet. Male Syrian golden hamsters (Janvier, France) were kept on a 12 h light-dark cycle. Animals (7 weeks age, 150 g) were fed for 2 weeks with a high cholesterol diet containing 0.2% cholesterol plus 10% coconut oil. Animals (n=5 per group) were then treated orally with vehicle, (0.5% methylcellulose, 5% Tween 80) or Example 1 at 1, 5 or 20 mg/kg in the vehicle, once a day for 3 days.
4 hours after the last administration, animals were sacrificed and livers were immediately dropped into liquid nitrogen. Total RNA was extracted using RNAqous kit (Ambion) according to manufacturer instruction. […] The expression of the hamster LDL-receptor was determined using the following primers: SEQ ID NO: 12 […] and SEQ ID NO: 13 […]. […] Each sample was quantified in duplicates and the cycle threshold (Ct) were calculated. For each animal the difference between Ct values for the LDL-receptor and Ribosomal RNA were calculated. The quantity of LDL-receptor mRNA relative to Ribosomal RNA reference was calculated as 2^−ΔΔCt and expressed in arbitrary units.
Cholesterol-fed hamsters were treated with Example 1 (5 mg/kg) or vehicle for 3 days. LDL-receptor mRNA in the liver was quantified by real-time PCR using Ribosomal 18S RNA as internal reference.

Q: Which results are given for `CCOc1cc(CC)ccc1C1CCN(CCCCNC(=O)c2ccc(NC(=O)c3ccc(Cl)cc3)cc2)CC1` [Example 1, 4-(4-Chloro-benzoylamino)-N-{4-[4-(2-ethoxy-4-ethyl-phenyl)-piperidin-1-yl]-butyl}-benzamide]?
A: LDL-receptor promoter activity on co-treatment with 25OH-cholesterol ([1]; 1 μM with 25OH-cholesterol 0.2 or 1 μM, 28 hours, HepG2, FIG. 2): can at least partially antagonise the effects of 25OH-cholesterol on SCAP; LDL-receptor promoter activity (luciferase/renila ratio) ([1]; 1 μM, 28 hours, HepG2, FIG. 2): acts as a transcriptional activators; response of minimal adenovirus Major Late promoter vector (p-MLP) ([1]; 1 μM, HepG2, FIG. 3C): fails to respond; response of p-MLP vector with 4 copies of SRE ([1]; 1 μM, HepG2, FIG. 3C): sufficient to confer the responsiveness; reporter expression from shortened LDL-receptor promoter constructs ([1]; 1 μM, HepG2, p-149 to p-31 constructs, FIG. 3B left): promote expression only for vectors possessing the SRE sequence; amount of SREBP-2 precursor form in the membrane ([2]; HepG2 transfected with pTK-HSV-BP2, FIG. 4): reduces the amount of SREBP-2 precursor form present in the membrane; amount of mature SREBP-2 in the nucleus ([2]; HepG2 transfected with pTK-HSV-BP2, nuclear extract, FIG. 4): strongly increases the amount of mature SREBP-2 in the nucleus; LDL-receptor mRNA in the liver [3]: increased mRNA for LDL-receptor
